# Patent US11905280B1, “2-(benzo[d]oxazol-2-yl)-N'-(picolinoyloxy)acetimidamide as an antimicrobial compound” (KING FAISAL UNIVERSITY, priority 2023, dated 2024)
# What was measured:
# Bacillus cereus = experiment: Agar plate disc-diffusion antibacterial test; assay type: cell-based; details: nutrient agar, 37° C., 48 hours
# Method: (§1) The agar plate disc-diffusion method was applied. Sterilized filter papers (6 mm in diameter) were wetted with 10 μL of a solution of 2-(benzo[d]oxazol-2-yl)-N′-(picolinoyloxy)acetimidamide (3) to be tested, containing 10 mg/mL in DMSO, and the discs were allowed to air dry. The discs were then placed onto the surface of agar plates (nutrient agar for bacteria and Sabouraud's dextrose agar for fungi) seeded with the test organism. Each plate contained 15 mL of the agar medium, previously seeded with 0.2 mL of the broth culture of each organism pregrown for 18 hours. The plates were incubated at 37° C. for 48 hours, and 72 hours for fungi. The inhibition zones was measured in mm. Discs impregnated with DMSO were used as a control, and its inhibition zone was subtracted from the tested compound actual inhibition zone.
# Escherichia coli = experiment: Agar plate disc-diffusion antibacterial test; assay type: cell-based; details: nutrient agar, 37° C., 48 hours
# Method: as §1
# Pseudomonas aeruginosa = experiment: Agar plate disc-diffusion antibacterial test; assay type: cell-based; details: nutrient agar, 37° C., 48 hours
# Method: as §1
# Staphylococcus aureus = experiment: Agar plate disc-diffusion antibacterial test; assay type: cell-based; details: nutrient agar, 37° C., 48 hours
# Method: as §1
# Aspergillus flavus = experiment: Agar plate disc-diffusion antifungal test; assay type: cell-based; details: Sabouraud's dextrose agar, 72 hours
# Method: as §1
# [1] = test system: Chrysosporium keratinophilum; experiment: Agar plate disc-diffusion antifungal test; assay type: cell-based; details: Sabouraud's dextrose agar, 72 hours
# Method: as §1
# [2] = A = concentration of comp. = 10,000 μL
# [3] = B = concentration of comp. = 30,000 μL
# [4] = C = concentration of comp. = 50,000 μL
smiles,measurement,setting,value
"N/C(Cc1nc2ccccc2o1)=N\OC(=O)c1ccccn1 [Compound 3, 2-(benzo[d]oxazol-2-yl)-N′-(picolinoyloxy)acetimidamide]","inhibition zone, Bacillus Cereus, A",Bacillus cereus; [2],25 mm
same,"inhibition zone, Bacillus Cereus, B",Bacillus cereus; [3],27 mm
same,"inhibition zone, Bacillus Cereus, C",Bacillus cereus; [4],39 mm
same,"inhibition zone, Escherichia coli, A",Escherichia coli; [2],29 mm
same,"inhibition zone, Escherichia coli, B",Escherichia coli; [3],37 mm
same,"inhibition zone, Escherichia coli, C",Escherichia coli; [4],53 mm
same,"inhibition zone, Pseudomonas aeruginosa, A",Pseudomonas aeruginosa; [2],25 mm
same,"inhibition zone, Pseudomonas aeruginosa, B",Pseudomonas aeruginosa; [3],31 mm
same,"inhibition zone, Pseudomonas aeruginosa, C",Pseudomonas aeruginosa; [4],45 mm
same,"inhibition zone, Staphylococcus aureus, A",Staphylococcus aureus; [2],15 mm
same,"inhibition zone, Staphylococcus aureus, B",Staphylococcus aureus; [3],20 mm
same,"inhibition zone, Staphylococcus aureus, C",Staphylococcus aureus; [4],28 mm
same,"inhibition zone, Aspergillus flavus, A",Aspergillus flavus; [2],24 mm
same,"inhibition zone, Aspergillus flavus, B",Aspergillus flavus; [3],27 mm
same,"inhibition zone, Aspergillus flavus, C",Aspergillus flavus; [4],38 mm
same,"inhibition zone, Chrysosporium keratinophilum, A",[1]; [2],23 mm
same,"inhibition zone, Chrysosporium keratinophilum, B",[1]; [3],29 mm
same,"inhibition zone, Chrysosporium keratinophilum, C",[1]; [4],48 mm
same,melting point,,156 to 158 °C
